# Reference: patent publication US10676710B2, “Cell culture compositions with antioxidants and methods for polypeptide production” (Genentech, Inc., priority 2013, dated 2020)
# Tests used:
# IgG1 monoclonal antibody = assay: Antioxidant incubation screening: color intensity of antibody composition after incubation in Media 1/Media 2 mixture; settings: 1X test concentration in Media 1 + Media 2 mixture, 2 g/L IgG1 mAb, 5 days 37° C.; normalized to positive control (0% change)
# Method: For antioxidant screening, a total volume of 40 ml media was prepared by mixing 1 part basal Media 1 and 0.3 part feed Media 2 to mirror a representative ratio of media used in cell culture conditions (Table 5). […] The samples were incubated at 37° C. with shaking at 250 rpm for a five day incubation period.
# After incubation, the monoclonal antibody was purified using protein A affinity chromatography. The pool was concentrated to 150 g/L using Amicon Centricon centrifugal filter devices (Millipore Corporation, Billerica, Mass.). Color intensity of the concentrated antibody composition was measured in the concentrated protein A pool using an assay wherein higher numerical values indicate higher color intensity and lower numerical values indicate lower color intensity. The numerical results were normalized to the positive control, where the value for the positive control was set at 0% change in color intensity.
# [1] = system: antibody producing CHO cells; assay: 2-liter stirred bioreactor fed-batch cell culture in basal Media 1/feed Media 2 supplemented with hypotaurine or analog; type: cell-based, Chinese hamster; settings: for cell growth as measured by VCC: 12.95 mM hypotaurine or 10 mM carboxymethylcysteine in Media 1, 2 L bioreactor (FIG. 7A); for cell viability: 12.95 mM hypotaurine or 10 mM carboxymethylcysteine in Media 1, 2 L bioreactor (FIG. 7B); for antibody production (antibody titer by HPLC): 12.95 mM hypotaurine or 10 mM carboxymethylcysteine in Media 1, 2 L bioreactor (FIG. 8); for color intensity reduction of isolated antibody composition, specific color assay / color intensity reduction of isolated antibody composition, second color assay: 12.95 mM hypotaurine or 10 mM carboxymethylcysteine in Media 1, protein A pool 150 g/L; for color intensity reduction of isolated antibody composition, specific color assay: vs positive control (FIG. 9A); for color intensity reduction of isolated antibody composition, second color assay: vs positive control (FIG. 9B)
# Method: Antibody producing CHO cells were inoculated at approximately 1.0×10^6 cells/mL in 2-liter stirred bioreactors (Applikon, Foster City, Calif.) containing 1 L of basal Media 1 supplemented with 12.95 mM hypotaurine or 10 mM carboxymethylcysteine (CAS number 638-23-3). Cells were cultured in fed-batch mode with addition of 100 mL of feed Media 2 per liter of cell culture fluid at days 3, 6 and 9 for initiation of the production phase. A positive control was included by culturing cells in Media 1 and 2 without hypotaurine supplementation. The concentration of glucose was analyzed every day and if the glucose concentration fell below 2 g/L, it was replenished from a […] stock solution of glucose for prevention of glucose depletion. Reactors were equipped with calibrated dissolved oxygen, pH and temperature probes. Dissolved oxygen was controlled on-line through sparging with air and/or oxygen. pH was controlled through addition of CO2 or Na2CO3 and antifoam was added to the cultures as needed. The cell cultures were maintained at pH 7.0 and a temperature of 37° C. from days 0 through 3, and then at 35° C. after day 3. The cell cultures were agitated at 275 rpm and the dissolved oxygen level was at 30% of air saturation. Osmolality was monitored using an osmometer from Advanced Instruments (Norwood, Mass.). Offline pH and metabolite concentrations were also determined daily using a Nova Bioprofile 400 (Nova Biomedical, Waltham, Mass.). VCC and cell viability was measured daily using a ViCell® automated cell counter (Beckman Coulter, Fullerton, Calif.). The cell culture fluid was collected daily by centrifuging 1 mL of cell culture fluid for determination of antibody titer using high performance liquid chromatography. At the end of the cell culture duration on day 14, when the amount of protein in the culture was approximately 2-10 g/L, the cell culture fluid from all samples was harvested by centrifugation. The monoclonal antibody in the harvested cell culture fluid was purified using protein A affinity chromatography. The protein A pool was concentrated to 150 g/L using Amicon Centricon centrifugal filter devices (Millipore Corporation, Billerica, Mass.). Color intensity of the concentrated antibody composition was measured in the concentrated protein A pool using two different assays wherein higher numerical values indicated higher color intensity and lower numerical values indicated lower color intensity. […] This color intensity reduction was confirmed by using a second color assay which detected an approximate 17% and 13% color intensity reduction in antibody compositions isolated from cell cultured in media supplemented with hypotaurine and carboxymethylcysteine, respectively (FIG. 9B).
# [2] = listed as carboxy methyl cysteine
SMILES,reduction of color intensity of the antibody-containing compositions (IgG1 monoclonal antibody),cell growth as measured by VCC [1],"cell growth as measured by VCC [1, 2]",cell viability [1],"cell viability [1, 2]",antibody production (antibody titer by HPLC) [1],"antibody production (antibody titer by HPLC) [1, 2]","color intensity reduction of isolated antibody composition, specific color assay [1]","color intensity reduction of isolated antibody composition, second color assay [1]"
"NCCS(=O)(=O)O [Taurine, 2-aminoethane-1-sulfonic acid]",approximately 5%,,,,,,,,
"N[C@@H](CSCC(=O)O)C(=O)O [carboxymethylcysteine, (2R)-2-amino-3-[(carboxymethyl)sulfanyl]propanoic acid]",,comparable,did not compromise,comparable,did not compromise,comparable levels of antibody titers,did not significantly reduce,13%,~13%
"NCCS(=O)O [hypotaurine, 2-aminoethane-1-sulfinate]",,,,,,,,27%,~17%
